Measured values from patent US11292786B2, “Pyrimidine compounds and pharmaceutical compositions for preventing or treating cancers including the same” (HANMI PHARM. CO., LTD., priority 2018, dated 2022).

Legend:
[1] = Microsomal stability, mice microsomes; format: in vitro ADME; conditions: residual amount % after 1 hour at 37° C., 5 μM, NADPH regenerating system
[2] = Microsomal stability, human liver microsomes; format: in vitro ADME; conditions: residual amount % after 1 hour at 37° C., 5 μM, 1 mg/ml human liver microsomes, NADPH regenerating system
Protocol: To confirm the reactivity of the test substances with intra-hepatic CYP450 enzymes, 5 μM test substances and 1 mg/ml human liver microsomes were incubated for 1 hour at a temperature of 37° C. in the presence of an NADPH regenerating system. After 1 hour, acetonitrile was added to terminate the reaction, and the supernatant obtained by centrifugation was analyzed by HPLC. The remaining amount % was calculated using the following equation using the value of the reacted sample for 1 hour relative to the value of the 0-minute sample as the peak value obtained as an analysis result. (Peak value of the sample reacted for 1 hour/peak value of the sample at 0 minutes)×100=residual amount %.

Row | SMILES | Mice microsomal stability (%) [1] [%] | Human microsomal stability (%) [2] [%]
1 | CCN(CC)C1CCN(c2cc(Nc3ncc(Cl)c(-c4c[nH]c5cc(C)ccc45)n3)cc(C3CC3)c2)CC1 [Control Compound 6] | 29 | 49
2 | Cc1ccc2c(-c3nc(Nc4cc(CN5C[C@@H](C)NC6(CC6)C5)cc(C5CC5)c4)ncc3Cl)c[nH]c2c1 [Example 27, (R)-5-chloro-N-(3-cyclopropyl-5-((5-methyl-4,7-diazaspiro[2.5]octan-7-yl)methyl)phenyl)-4-(6-methyl-1H-indole-3-yl)pyrimidine-2-amine] | 69 | 72
